Each structure is given as a SMILES string. pIC50: −log10 of the molar value.

In patent US7754746B2, “Organic compounds” (Novartis AG, priority 2005, dated 2010) one finds IC50 data, which are given here for one compound.

The assay concerns the target recombinant GST-p110γ (human PI3Kγ residues 38-1102) (Homo sapiens, UniProt P48736). Nature of the assay: in vitro kinase assay (Scintillation Proximity Assay), phosphate transfer from ATP to phosphatidylinositol. The note with it: 12.5 μM ATP in assay mix, 60 minutes at room temperature. A general note: In a scintillation proximity assay essentially only radioactivity close to the scintillant gives light.

recombinant GST-p110γ (human PI3Kγ residues 38-1102), sequence (P48736 38-1102): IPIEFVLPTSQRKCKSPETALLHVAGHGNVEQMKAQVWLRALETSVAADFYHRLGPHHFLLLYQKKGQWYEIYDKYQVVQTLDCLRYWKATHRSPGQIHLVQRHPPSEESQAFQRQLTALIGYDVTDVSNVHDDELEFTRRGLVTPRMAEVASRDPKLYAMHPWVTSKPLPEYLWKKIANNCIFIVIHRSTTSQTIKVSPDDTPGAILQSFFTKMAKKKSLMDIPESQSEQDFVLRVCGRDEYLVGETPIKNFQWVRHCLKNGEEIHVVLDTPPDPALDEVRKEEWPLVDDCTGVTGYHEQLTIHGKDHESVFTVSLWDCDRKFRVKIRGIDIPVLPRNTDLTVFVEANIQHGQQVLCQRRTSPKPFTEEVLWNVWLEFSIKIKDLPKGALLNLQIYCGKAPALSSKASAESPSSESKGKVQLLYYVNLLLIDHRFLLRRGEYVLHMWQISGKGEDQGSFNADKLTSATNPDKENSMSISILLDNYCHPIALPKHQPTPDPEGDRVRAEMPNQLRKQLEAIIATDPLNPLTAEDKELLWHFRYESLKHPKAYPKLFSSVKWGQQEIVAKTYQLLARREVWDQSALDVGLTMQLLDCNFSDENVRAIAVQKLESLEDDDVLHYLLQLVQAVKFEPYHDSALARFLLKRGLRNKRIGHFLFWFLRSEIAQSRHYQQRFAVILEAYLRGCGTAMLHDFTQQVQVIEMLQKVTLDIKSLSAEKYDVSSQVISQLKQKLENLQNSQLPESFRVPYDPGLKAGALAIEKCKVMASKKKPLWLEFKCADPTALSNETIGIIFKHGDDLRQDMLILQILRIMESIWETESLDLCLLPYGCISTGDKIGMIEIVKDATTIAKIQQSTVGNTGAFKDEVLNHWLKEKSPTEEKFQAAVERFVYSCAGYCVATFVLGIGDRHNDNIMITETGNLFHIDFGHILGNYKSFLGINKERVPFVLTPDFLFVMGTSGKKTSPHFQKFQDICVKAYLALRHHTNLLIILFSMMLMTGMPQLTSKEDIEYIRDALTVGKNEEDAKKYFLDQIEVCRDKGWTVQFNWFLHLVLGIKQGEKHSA
Experimental: An in vitro kinase assay was established that measures the transfer of the terminal phosphate of adenosine triphosphate to phosphatidylinositol. The kinase reaction is performed in a white 96 well microtitre plate as a Scintillation Proximity Assay. […] The reaction is started by the addition of 20 μl of enzyme mix (40 mM Tris, 200 mM NaCl, 2 mM EGTA containing recombinant GST-p110γ).

As to `CC(=O)c1ccc(-c2sc(NC(=O)NCCc3cn(CCF)cn3)nc2C)cc1` [Example 5], the pIC50 – broadly, the IC50 on a negative log10 scale, so that one unit is a factor of ten – is 6.96.
